Laboratory results reported in PubChem BioAssay (NCI).
Several values for one entry are separate records, joined by “and”; a condition that tells them apart may be missing. Equal values may be shown once.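 Exposure lasted 48 hours, with cells grown in 96-well plates and compounds tested at five concentrations. Abbreviation: GI50, concentration required for 50% inhibition of growth. The concentration for full growth arrest is given as TGI.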

What was measured:
Assay in all cases: DTP human tumour cell line panel, 48 h
[1] = system: OVCAR-8 ovarian
[2] = system: NCI-H226 lung
[3] = system: K-562 leukemia
[4] = system: U251 CNS
[5] = system: OVCAR-3 ovarian
[6] = system: RXF 393 renal
[7] = system: NCI-H23 lung
[8] = system: SNB-75 CNS
[9] = system: HOP-92 NSCLC
[10] = system: M14 melanoma

| SMILES | TGI [1] | TGI [2] | TGI [3] | TGI [4] | TGI [5] | TGI [6] | TGI [7] | TGI [8] | TGI [9] | TGI [10] | GI50 [1] | GI50 [3] | GI50 [4] | GI50 [5] | GI50 [7] | GI50 [8] | GI50 [10] | GI50 [2] | GI50 [6] | GI50 [9] |
| --- | --- | --- | --- | --- | --- | --- | --- | --- | --- | --- | --- | --- | --- | --- | --- | --- | --- | --- | --- | --- |
| CC(C)(CCc1nc2ccccc2[nH]1)C(=O)O | > 100 µM | > 100 µM | > 100 µM | > 100 µM | > 100 µM | > 100 µM | > 100 µM | > 100 µM | > 100 µM | > 100 µM |  |  |  |  |  |  |  |  |  |  |
| Cc1c(N)nc(C2CC(=O)N2CC(N)C(N)=O)nc1C(=O)NC(C(=O)NC(C)C(O)C(C)C(=O)NC(C(=O)NCCc1nc(-c2nc(C(=O)NCCNCC(C)O)cs2)cs1)C(C)O)C(OC1OC(CO)C(O)C(O)C1OC1OC(CO)C(O)C(OC(N)=O)C1O)c1cnc[nH]1 (stereo unspecified) | 50 µM and > 100 µM | 0.261 µM | 50 µM and > 100 µM | 50 µM and 24.2 µM | 20.6 µM and > 55 µM | 0.425 µM | 16.3 µM and 8.81 µM | 23.9 µM and 6.66 µM | 9.68 µM | 50 µM and 23.8 µM | 6.97 µM | 35.9 µM | 2.53 µM | 1.63 µM | 1.06 µM | 3.06 µM | 7.91 µM |  |  |  |
| COc1cccc2c(Nc3ccc(C(=O)NCCN4CCNCC4)cc3)cc(-c3ccccc3)nc12 | > 100 µM | > 100 µM | 75.3 µM | > 100 µM | > 100 µM | > 100 µM | > 100 µM | > 100 µM | > 100 µM | 38.7 µM | 39.2 µM | 27.7 µM | 34.8 µM | > 100 µM | > 100 µM | 33.2 µM | 20.1 µM | > 100 µM | > 100 µM | 95 µM |
| O=C(Nc1cccc(C(F)(F)F)c1)Nc1cc(S(=O)(=O)NC2CC2)ccc1-c1ccsc1 | 18.1 µM | 19 µM | 13.5 µM | 13.6 µM | 14.9 µM | 18.8 µM | 16.6 µM | 16.4 µM | 7.45 µM | 18.4 µM | 4.07 µM | 3.42 µM | 3.78 µM | 4.02 µM | 4.03 µM | 3.45 µM | 4.32 µM | 4.82 µM | 4.98 µM | 1.73 µM |
| COC(=O)N/N=C(\c1nc2ccc(Cl)cc2[nH]c1=O)C(O)c1ccc([N+](=O)[O-])cc1 (stereo unspecified) | > 100 µM | > 100 µM | > 100 µM | > 100 µM | > 100 µM | > 100 µM | > 100 µM | > 100 µM | > 100 µM | > 100 µM |  |  |  |  |  |  |  |  |  |  |
| Cn1c(=O)c(-c2c(Cl)cccc2Cl)cc2cnc(Nc3ccc(N4CCOCC4)cc3)nc21 | > 100 µM | > 100 µM | 0.0538 µM | 6.13 µM | > 100 µM | 3.86 µM | 0.31 µM | 0.0916 µM | 1.93 µM |  | 1.09 µM | < 0.01 µM | 0.17 µM | 0.323 µM | < 0.01 µM | < 0.01 µM | < 0.01 µM | 0.0748 µM | 1.36 µM | 0.211 µM |
